The results in this text go back to patent US20080249165A1, “Glycosides and Salts Thereof” (Ivax Drug Research Institute Ltd., priority 2004, published 2008).

The target of one assay is T1, IP-3 receptor (Rattus norvegicus, UniProt P29994).
T1 construct: from tissue; host or cells: rat cerebellum (microsomal membrane preparation)
Briefly: IP-3 receptor antagonistic effect: inhibition of IP3 binding in rat cerebellum membrane preparations (Model 5). As for the experimental part:
The polysulfated glycosides of the present invention, depending on their chemical structure, inhibit the binding of inositol-1,4,5-trisphosphate (IP3) to its receptor in microsomal membrane preparations. As IP3 is a messenger molecule playing distinguished role in the activation of different cells, interfering with this function can explain the anti-asthmatic effect of these polysulfated glycosides. The IP3 antagonist effect of the polysulfated glycosides was determined using rat cerebellum membrane preparations according to Worley et al. (JBC 262, 12132, 1987).

A further assay deals with BN-rats. Briefly: Airways' hyper-responsiveness ex vivo: tracheal contraction to acetylcholine after antigen challenge and intratracheal pretreatment (Model 1). The format is in vivo, rat. The note with it: for MAX** Contraction at maximal Ach concentration relative to control (mean ± SEM) / ED50* log M acetylcholine (Ach), causing 50% contraction relative to control (mean ± SEM): trachea 48 h post challenge; for ED50* log M acetylcholine (Ach), causing 50% contraction relative to control (mean ± SEM): sensitized BN rats. The procedure: Brown Norway (BN) rats were actively sensitized to ovalbumin (OA) by a subcutaneous injection of 0.5 ml of OA/Al(OH)3 gel mixture (2 mg OA+10 g Al(OH)3/100 ml saline) on day 1 with subsequent subcutaneous injections (10 mg OA+10 g Al(OH)3/100 ml saline) given on days 14 and 21. On day 28, animals received the compound described in the first example intratracheally (0.001; 0.01; 0.1 or 1.0 mg/kg dose) 2 hours before antigen challenge. Antigen challenge was performed by inhalation of nebulised ovalbumin (1% antigen solution administered in a TSE inhalation system for 1 hour). Animals were sacrificed 48 hours post antigen challenge wherein the tracheas were removed to an organ bath. Dissected tracheas were allowed to equilibrate for 30 minutes before measuring tracheal spasmogenic response curves to acetylcholine (Ach).

Assay [1] deals with BN rats. Nature of the assay: Allergen stimulated mucus production of airways epithelial cells (Model 2). The assay is classed as in vivo, rat. The following applies: for number of PAS(+) cells as percent of total number of cells (average ± SEM): lungs 48 hours after challenge. As for the experimental part: Sensitized BN rats were treated intratracheally with varying (0.001-1.0 mg/kg) dose of compound described in the first example, two hours before antigenic challenge, using a similar protocol described in Model 1. Lungs were collected 48 hours after challenge and were fixed in 8% phosphate buffered formaldehyde. Samples were then processed for histochemistry routinely. 5 μm thick sections were stained with periodic-acid-Schiff (PAS) reagents and were counterstained with haematoxylin-eosine. On the sections each epithelial cells of the airways were counted in the whole preparation at a magnification of 400×. The number of PAS(+) [mucus producing] epithelial cells was expressed as the ratio of the total number of epithelial cells.

Assay [2] deals with BN rats. Nature of the assay: Extent of perivascular oedema developed in asthmatic lung tissue (Model 3). The assay is classed as in vivo, rat. The note with it: for Oedema* area of oedema relative to area of vasculature (average ± SEM): lungs 48 hours after challenge. The procedure:
Sensitized BN rats were treated intratracheally with varying (0.001-1.0 mg/kg) dose of compound described in the first example, two hours before antigenic challenge, using a similar protocol described in Model 1. Lungs were collected 48 hours after challenge and were fixed in 8% phosphate buffered formaldehyde. Samples were then processed for histochemistry routinely. 5 μm thick sections were stained with periodic-acid-Schiff (PAS) reagents and were counterstained with haematoxylin-eosine. On the sections the area of the connective tissue around the vasculare was determined and expressed as a ratio of the area of the corresponding blood vessel itself.

Assay [3] concerns BN rats. Briefly: Extent of peribronchial eosinophilia developed in asthmatic lung tissue (Model 4). The assay is classed as in vivo, rat. The following applies: for peribronchial eosinophil number per visual field (average ± SEM): lungs 48 hours after challenge. The procedure: Sensitized BN rats were treated intratracheally with varying (0.001-1.0 mg/kg) dose of compound described in the first example, two hours before antigenic challenge, using a similar protocol described in Model 1. Lungs were collected 48 hours after challenge and were fixed in 8% phosphate buffered formaldehyde. Samples were then processed for histochemistry routinely. 5 μm thick sections were stained with May Gruenvald Giemsa and the number of eosinophils, situated peribronchially, was determined.

[4] abbreviates: read-out: IC50 (μg/ml) Average ± SEM (n) (converted).
Setting [5] is: 0.001 mg/kg intratracheally 2 hours before antigen challenge.
The mark [6] stands for this setting: 0.1 mg/kg intratracheally 2 hours before antigen challenge.
The mark [7] stands for this setting: 0.001 mg/kg intratracheally two hours before antigenic challenge.
The mark [8] stands for this setting: 0.1 mg/kg intratracheally two hours before antigenic challenge.

Counter-ions that a name gives are not always drawn. Like-named read-outs stand apart in the source and are kept apart here.

T1 sequence (P29994 whole entry): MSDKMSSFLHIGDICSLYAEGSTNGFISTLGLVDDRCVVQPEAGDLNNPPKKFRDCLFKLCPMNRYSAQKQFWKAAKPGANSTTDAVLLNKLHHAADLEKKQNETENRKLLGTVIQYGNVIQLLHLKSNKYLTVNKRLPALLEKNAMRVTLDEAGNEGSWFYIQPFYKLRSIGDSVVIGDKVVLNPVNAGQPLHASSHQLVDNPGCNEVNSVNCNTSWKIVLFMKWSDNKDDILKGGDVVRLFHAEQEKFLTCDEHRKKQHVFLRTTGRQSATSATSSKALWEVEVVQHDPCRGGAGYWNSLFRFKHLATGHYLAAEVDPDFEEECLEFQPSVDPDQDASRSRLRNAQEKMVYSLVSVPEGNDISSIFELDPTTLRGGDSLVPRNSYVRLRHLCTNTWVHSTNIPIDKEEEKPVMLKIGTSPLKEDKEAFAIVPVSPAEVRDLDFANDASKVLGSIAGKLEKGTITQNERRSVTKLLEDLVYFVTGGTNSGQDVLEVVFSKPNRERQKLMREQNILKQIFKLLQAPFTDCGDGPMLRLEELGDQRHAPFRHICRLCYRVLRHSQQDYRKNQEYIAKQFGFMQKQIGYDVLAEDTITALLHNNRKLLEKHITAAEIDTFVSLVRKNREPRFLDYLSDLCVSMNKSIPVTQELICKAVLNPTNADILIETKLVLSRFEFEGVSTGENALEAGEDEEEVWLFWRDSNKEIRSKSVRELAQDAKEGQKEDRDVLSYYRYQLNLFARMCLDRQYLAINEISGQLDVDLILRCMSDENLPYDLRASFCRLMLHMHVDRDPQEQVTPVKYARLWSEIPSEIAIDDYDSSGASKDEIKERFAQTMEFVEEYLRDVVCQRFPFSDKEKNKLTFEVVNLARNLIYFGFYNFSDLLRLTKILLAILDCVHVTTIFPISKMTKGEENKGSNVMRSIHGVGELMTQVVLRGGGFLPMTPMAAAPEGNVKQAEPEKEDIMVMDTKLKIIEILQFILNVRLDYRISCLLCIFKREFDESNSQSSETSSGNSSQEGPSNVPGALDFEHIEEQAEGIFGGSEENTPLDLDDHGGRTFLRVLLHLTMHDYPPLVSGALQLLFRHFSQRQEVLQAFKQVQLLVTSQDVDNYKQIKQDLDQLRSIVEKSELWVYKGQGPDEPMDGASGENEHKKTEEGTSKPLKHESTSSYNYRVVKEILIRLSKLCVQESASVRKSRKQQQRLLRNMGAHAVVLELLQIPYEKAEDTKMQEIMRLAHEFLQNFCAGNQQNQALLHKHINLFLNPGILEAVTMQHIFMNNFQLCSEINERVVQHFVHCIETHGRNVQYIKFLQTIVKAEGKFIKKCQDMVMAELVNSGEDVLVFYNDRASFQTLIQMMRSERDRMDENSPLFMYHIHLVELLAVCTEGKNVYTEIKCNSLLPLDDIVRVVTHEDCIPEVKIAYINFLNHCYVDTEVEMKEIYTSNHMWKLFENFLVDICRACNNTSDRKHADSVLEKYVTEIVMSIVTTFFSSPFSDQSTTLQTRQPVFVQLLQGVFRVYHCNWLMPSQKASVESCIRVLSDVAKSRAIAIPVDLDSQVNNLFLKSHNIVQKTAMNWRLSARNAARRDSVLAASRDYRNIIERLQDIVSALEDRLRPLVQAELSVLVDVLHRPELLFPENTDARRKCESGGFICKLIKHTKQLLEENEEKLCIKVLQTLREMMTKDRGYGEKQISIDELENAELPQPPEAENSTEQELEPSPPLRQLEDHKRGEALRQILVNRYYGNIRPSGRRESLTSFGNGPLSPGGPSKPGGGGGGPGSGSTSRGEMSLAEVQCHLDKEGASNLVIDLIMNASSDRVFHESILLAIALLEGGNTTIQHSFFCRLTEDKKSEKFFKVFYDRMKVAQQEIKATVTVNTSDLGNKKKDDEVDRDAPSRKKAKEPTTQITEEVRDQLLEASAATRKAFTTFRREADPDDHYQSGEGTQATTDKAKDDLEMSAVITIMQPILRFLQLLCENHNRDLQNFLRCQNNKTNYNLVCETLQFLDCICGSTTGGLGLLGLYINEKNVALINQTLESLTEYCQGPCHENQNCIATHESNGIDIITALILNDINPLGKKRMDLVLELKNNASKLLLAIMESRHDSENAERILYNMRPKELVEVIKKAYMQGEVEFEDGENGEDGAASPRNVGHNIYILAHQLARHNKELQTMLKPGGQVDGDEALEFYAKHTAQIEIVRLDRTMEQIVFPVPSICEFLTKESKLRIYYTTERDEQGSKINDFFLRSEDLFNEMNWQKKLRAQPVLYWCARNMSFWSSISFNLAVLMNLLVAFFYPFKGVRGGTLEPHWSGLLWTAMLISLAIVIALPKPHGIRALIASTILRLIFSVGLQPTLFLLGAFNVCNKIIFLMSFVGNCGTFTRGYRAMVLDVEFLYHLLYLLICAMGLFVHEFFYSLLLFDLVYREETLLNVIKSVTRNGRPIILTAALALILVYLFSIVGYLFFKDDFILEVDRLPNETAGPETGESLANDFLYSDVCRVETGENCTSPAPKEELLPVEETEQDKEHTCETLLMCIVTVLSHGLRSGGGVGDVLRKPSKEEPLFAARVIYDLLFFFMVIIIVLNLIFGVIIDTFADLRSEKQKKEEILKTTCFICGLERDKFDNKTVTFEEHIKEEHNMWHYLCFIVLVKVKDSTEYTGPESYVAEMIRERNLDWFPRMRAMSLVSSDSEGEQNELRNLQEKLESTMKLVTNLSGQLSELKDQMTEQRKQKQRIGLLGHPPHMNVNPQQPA

In the case of `O=S(=O)(O)OC[C@H]1O[C@@H](OC[C@H]2O[C@H](CO[C@@H]3O[C@H](COS(=O)(=O)O)[C@@H](OS(=O)(=O)O)[C@H](OS(=O)(=O)O)[C@H]3OS(=O)(=O)O)[C@@H](OS(=O)(=O)O)[C@@H]2OS(=O)(=O)O)[C@H](OS(=O)(=O)O)[C@@H](OS(=O)(=O)O)[C@@H]1OS(=O)(=O)O` [Example 8, 2,5-Anhydro-3,4-di-O-sulfato-1,6-bis-O-(2,3,4,6-tetra-O-sulfato-β-D-glucopyranosyl)-D-mannitol deca potassium salt], the IC50 at IP-3 receptor (read-out: Average IC50) is 539 nM; on IP-3 receptor (setting [4]), 698 nM.
For `O=S(=O)(O)OC[C@H]1O[C@@H](O[C@H]2[C@H](OS(=O)(=O)O)[C@@H](COS(=O)(=O)O)O[C@@H]2COS(=O)(=O)O)[C@H](OS(=O)(=O)O)[C@@H](OS(=O)(=O)O)[C@@H]1OS(=O)(=O)O` [Example 3, 2,5-Anhydro-1,4,6-tri-O-sulfato-3-O-(2,3,4,6-tetra-O-sulfato-β-D-glucopyranosyl)-D-mannitol hepta sodium salt], the IC50 was 1390 nM at IP-3 receptor (read-out: Average IC50) and 1210 nM on IP-3 receptor (setting [4]).
In the case of `O=S(=O)(O)OC[C@H]1O[C@@H](OC[C@H]2O[C@H](CO[C@@H]3O[C@H](COS(=O)(=O)O)[C@@H](OS(=O)(=O)O)[C@H](OS(=O)(=O)O)[C@H]3OS(=O)(=O)O)[C@@H](OS(=O)(=O)O)[C@@H]2O[C@@H]2O[C@H](COS(=O)(=O)O)[C@@H](OS(=O)(=O)O)[C@H](OS(=O)(=O)O)[C@H]2OS(=O)(=O)O)[C@H](OS(=O)(=O)O)[C@@H](OS(=O)(=O)O)[C@@H]1OS(=O)(=O)O` [Example 10, 2,5-Anhydro-4-O-sulfato-1,3,6-tris-O-(2,3,4,6-tetra-O-sulfato-β-D-glucopyranosyl)-D-mannitol trideca potassium salt], the IC50 was 137 nM at IP-3 receptor (read-out: Average IC50) and 177 nM at IP-3 receptor (setting [4]).
Consider `O=S(=O)(O)OCC1OC(COS(=O)(=O)O)C(OS(=O)(=O)O)C1OC1OC(COS(=O)(=O)O)C(OS(=O)(=O)O)C(OS(=O)(=O)O)C1OS(=O)(=O)O` [Example 2, 2,5-Anhydro-1,4,6-tri-O-sulfato-3-O-(2,3,4,6-tetra-O-sulfato-α-L-idopyranosyl)-D-mannitol hepta potassium salt], for which the results for the IC50 at IP-3 receptor (read-out: Average IC50) and at IP-3 receptor (setting [4]) were 4810 nM and 5650 nM, respectively.
Regarding `O=S(=O)(O)OC[C@H]1O[C@@H](OC[C@H]2O[C@@H](O[C@H]3[C@H](OS(=O)(=O)O)[C@@H](COS(=O)(=O)O)O[C@@H]3COS(=O)(=O)O)[C@H](OS(=O)(=O)O)[C@@H](OS(=O)(=O)O)[C@@H]2OS(=O)(=O)O)[C@H](OS(=O)(=O)O)[C@@H](OS(=O)(=O)O)[C@@H]1OS(=O)(=O)O` [Example 7, 2,5-Anhydro-1,4,6-tri-O-sulfato-3-O-[6-O-(2,3,4,6-tetra-O-sulfato-β-D-glucopyranosido)-2,3,4-tetra-O-sulfato-β-D-glucopyranosyl]-D-mannitol deca potassium salt], the IC50 is 240 nM on IP-3 receptor (read-out: Average IC50) and 310 nM at IP-3 receptor (setting [4]).
In the case of `O=S(=O)(O)OCC1OC(COS(=O)(=O)O)C(OS(=O)(=O)O)C1OC1OC(COS(=O)(=O)O)C(OS(=O)(=O)O)C(OS(=O)(=O)O)C1OS(=O)(=O)O` [Example 1, 2,5-Anhydro-1,4,6-tri-O-sulfato-3-O-(2,3,4,6-tetra-O-sulfato-α-L-idopyranosyl)-D-mannitol hepta sodium salt], the “MAX** Contraction at maximal Ach concentration relative to control (mean ± SEM)” value in the assay with BN-rats (setting [5]) is given as 166 ± 41; in the assay on BN-rats (setting [6]) it was 99 ± 16. Further, the figures for the “ED50* log M acetylcholine (Ach), causing 50% contraction relative to control (mean ± SEM)” value in the assay with BN-rats (setting [5]) and in the assay with BN-rats (setting [6]) were 5.78 ± 0.30 log M and 4.70 ± 0.37 log M, respectively. Further, in the assay on BN-rats (dose of 0.1 mg/kg, 48 h after antigen challenge), the “tracheal hyper-reactivity to acetylcholine after ovalbumin challenge (in words)” value is “brought this elevation back to control level”. The “number of PAS(+) cells as percent of total number of cells (average ± SEM)” value was determined as 35.2 ± 3.5% with BN rats [1] (setting [7]) and 17.5 ± 2.4% in the assay with BN rats [1] (setting [8]). In the assay on BN rats [1] (dose of 0.1 mg/kg), the “number of PAS(+), mucus producing cells (in words)” value is on record as “significantly decreased”. For the same compound, the results for the “Oedema* area of oedema relative to area of vasculature (average ± SEM)” value with BN rats [2] (setting [7]) and in the assay on BN rats [2] (setting [8]) were 41 ± 6 and 53 ± 6, respectively. In addition, the “extent of aedema around the vasculature (in words)” value with BN rats [2] (smallest dose) is “significantly decreased”. Besides, the “peribronchial eosinophil number per visual field (average ± SEM)” value turned out to be 74 ± 2 in the assay with BN rats [3] (setting [7]) and 25 ± 2 in the assay with BN rats [3] (setting [8]). Besides, the entries for the “number of peribronchially situated eosinophils in the lung (in words)” value in the assay with BN rats [3] (higher doses) and with BN rats [3] (smallest dose) were “the decrease become statistically significant” and “decreases the extent of it”, respectively. Besides, the IC50 at IP-3 receptor (read-out: Average IC50) was 1490 nM; at IP-3 receptor (setting [4]), 1750 nM.
Regarding `O=S(=O)(O)OCC1OC(OCC2OC(OCC3OC(COC4OC(COC5OC(COS(=O)(=O)O)C(OS(=O)(=O)O)C(OS(=O)(=O)O)C5OS(=O)(=O)O)C(OS(=O)(=O)O)C(OS(=O)(=O)O)C4OS(=O)(=O)O)C(OS(=O)(=O)O)C3OS(=O)(=O)O)C(OS(=O)(=O)O)C(OS(=O)(=O)O)C2OS(=O)(=O)O)C(OS(=O)(=O)O)C(OS(=O)(=O)O)C1OS(=O)(=O)O` [Example 9, 2,5-Anhydro-3,4-di-O-sulfato-1,6-bis-[(6-O-2,3,4,6-tetra-O-sulfato-β-D-glucopyranosido)-2,3,4-tri-O-sulfato-β-D-glucopyranosyl]-D-mannitol hexadeca potassium salt], the IC50 was 115 nM on IP-3 receptor (read-out: Average IC50) and 148 nM on IP-3 receptor (setting [4]).
`O=S(=O)(O)OC[C@H]1O[C@@H](O[C@H]2[C@H](OS(=O)(=O)O)[C@@H](COS(=O)(=O)O)O[C@@H]2COS(=O)(=O)O)[C@H](OS(=O)(=O)O)[C@@H](OS(=O)(=O)O)[C@@H]1O[C@H]1O[C@H](COS(=O)(=O)O)[C@@H](OS(=O)(=O)O)[C@H](OS(=O)(=O)O)[C@H]1OS(=O)(=O)O` [Example 6, 2,5-Anhydro-1,4,6-tri-O-sulfato-3-O-(2,3,6,2′,3′,4′,6′-hepta-O-sulfato-β-D-maltosyl)-D-mannitol deca potassium salt]: the IC50 is 222 nM at IP-3 receptor (read-out: Average IC50) and 287 nM at IP-3 receptor (setting [4]).
`O=S(=O)(O)OC[C@H]1O[C@H](COS(=O)(=O)O)[C@@H](OS(=O)(=O)O)[C@@H]1O[C@@H]1OC[C@H](OS(=O)(=O)O)[C@H](OS(=O)(=O)O)[C@H]1OS(=O)(=O)O` [Example 4, 2,5-Anhydro-1,4,6-tri-O-sulfato-3-O-(2,3,4-tri-O-sulfato-α-L-arabinopyranosyl)-D-mannitol hexa potassium salt]: the IC50 at IP-3 receptor (read-out: Average IC50) is 20300 nM; at IP-3 receptor (setting [4]), 26300 nM.
On to `O=S(=O)(O)OC[C@H]1O[C@H](COS(=O)(=O)O)[C@@H](OS(=O)(=O)O)[C@@H]1O[C@H]1OC[C@@H](OS(=O)(=O)O)[C@@H](OS(=O)(=O)O)[C@@H]1OS(=O)(=O)O` [Example 5, 2,5-Anhydro-1,4,6-tri-O-sulfato-3-O-(2,3,4-tri-O-sulfato-α-D-arabinopyranosyl)-D-mannitol hexa potassium salt], for which the values for the IC50 at IP-3 receptor (read-out: Average IC50) and on IP-3 receptor (setting [4]) were 26500 nM and 34300 nM, respectively.
